According to the NIST ThermoML archive (doi:10.1016/j.jct.2019.02.011):
± gives the expanded uncertainty stated by the source.

Assay: xn = mol fraction of the nth substance listed
Settings: Liquid, Vibrating tube method

COC(=O)OC [dimethyl carbonate] + CCO
mass density [kg/m3]
Settings	100 kPa	5000 kPa	10000 kPa	15000 kPa	20000 kPa	25000 kPa	30000 kPa	35000 kPa	40000 kPa
293.15 K, x1 = 0.0252	–	–	–	811.64 ± 1.4	815.31 ± 1.4	819.03 ± 1.4	822.43 ± 1.4	825.77 ± 1.4	828.8 ± 1.4
293.15 K, x1 = 0.0506	–	–	–	821.2 ± 1.4	824.93 ± 1.4	828.7 ± 1.4	832.16 ± 1.4	835.5 ± 1.4	838.59 ± 1.4
293.15 K, x1 = 0.0757	–	–	–	830.53 ± 1.4	834.27 ± 1.4	838.04 ± 1.4	841.5 ± 1.4	844.9 ± 1.4	848.05 ± 1.4
293.15 K, x1 = 0.1003	–	–	–	839.43 ± 1.4	843.17 ± 1.4	846.95 ± 1.4	850.46 ± 1.4	853.86 ± 1.4	857.02 ± 1.4
293.15 K, x1 = 0.1508	–	–	–	857.39 ± 1.4	861.19 ± 1.4	864.97 ± 1.4	868.5 ± 1.4	871.96 ± 1.4	875.19 ± 1.4
293.15 K, x1 = 0.2	–	–	–	874.34 ± 1.4	878.21 ± 1.4	882.03 ± 1.4	885.62 ± 1.4	889.09 ± 1.4	892.34 ± 1.4
293.15 K, x1 = 0.2547	–	–	888.37 ± 1.4	892.5 ± 1.4	896.38 ± 1.4	900.3 ± 1.4	903.95 ± 1.4	907.43 ± 1.4	910.71 ± 1.4
293.15 K, x1 = 0.3002	–	–	903.11 ± 1.4	907.24 ± 1.4	911.13 ± 1.4	915.06 ± 1.4	918.71 ± 1.4	922.25 ± 1.4	925.54 ± 1.5
293.15 K, x1 = 0.3498	–	–	918.65 ± 1.4	922.78 ± 1.4	926.73 ± 1.4	930.66 ± 1.4	934.33 ± 1.5	937.83 ± 1.5	941.14 ± 1.5
293.15 K, x1 = 0.4	–	–	933.81 ± 1.4	937.95 ± 1.4	941.91 ± 1.5	945.85 ± 1.5	949.52 ± 1.5	953.08 ± 1.5	956.41 ± 1.5
293.15 K, x1 = 0.449	–	–	948.11 ± 1.5	952.25 ± 1.5	956.22 ± 1.5	960.16 ± 1.5	963.84 ± 1.5	967.41 ± 1.5	970.75 ± 1.5
293.15 K, x1 = 0.4996	–	–	962.37 ± 1.5	966.52 ± 1.5	970.5 ± 1.5	974.44 ± 1.5	978.13 ± 1.5	981.71 ± 1.5	985.12 ± 1.5
293.15 K, x1 = 0.5507	–	–	976.3 ± 1.5	980.45 ± 1.5	984.45 ± 1.5	988.38 ± 1.5	992.09 ± 1.5	995.67 ± 1.5	999.1 ± 1.5
293.15 K, x1 = 0.6005	–	–	989.41 ± 1.5	993.51 ± 1.5	997.52 ± 1.5	1001.46 ± 1.5	1005.17 ± 1.5	1008.76 ± 1.5	1012.2 ± 1.5
293.15 K, x1 = 0.6455	–	–	1000.79 ± 1.5	1004.95 ± 1.5	1008.96 ± 1.5	1012.9 ± 1.5	1016.62 ± 1.5	1020.22 ± 1.5	1023.68 ± 1.5
293.15 K, x1 = 0.6931	–	–	1012.44 ± 1.5	1016.6 ± 1.5	1020.62 ± 1.5	1024.56 ± 1.5	1028.29 ± 1.5	1031.89 ± 1.5	1035.36 ± 1.5
293.15 K, x1 = 0.7502	–	–	1025.93 ± 1.5	1030.04 ± 1.5	1034.07 ± 1.5	1038.07 ± 1.5	1041.8 ± 1.5	1045.41 ± 1.5	1048.9 ± 1.5
293.15 K, x1 = 0.8009	–	–	1037.44 ± 1.5	1041.56 ± 1.5	1045.6 ± 1.5	1049.6 ± 1.5	1053.34 ± 1.6	1056.96 ± 1.6	1060.46 ± 1.6
293.15 K, x1 = 0.8505	–	–	1048.32 ± 1.5	1052.45 ± 1.5	1056.49 ± 1.6	1060.49 ± 1.6	1064.24 ± 1.6	1067.85 ± 1.6	1071.38 ± 1.6
293.15 K, x1 = 0.9008	–	–	1058.94 ± 1.6	1063.09 ± 1.6	1067.15 ± 1.6	1071.17 ± 1.6	1074.9 ± 1.6	1078.5 ± 1.6	1082.06 ± 1.6
293.15 K, x1 = 0.9255	–	–	1064.04 ± 1.6	1068.18 ± 1.6	1072.28 ± 1.6	1076.27 ± 1.6	1080.01 ± 1.6	1083.62 ± 1.6	1087.15 ± 1.6
293.15 K, x1 = 0.9477	–	–	1068.54 ± 1.6	1072.7 ± 1.6	1076.81 ± 1.6	1080.81 ± 1.6	1084.52 ± 1.6	1088.13 ± 1.6	1091.64 ± 1.6
293.15 K, x1 = 0.9735	–	–	1073.72 ± 1.6	1077.83 ± 1.6	1081.94 ± 1.6	1085.94 ± 1.6	1089.66 ± 1.6	1093.25 ± 1.6	1096.74 ± 1.6
293.15 K, x1 = 1	–	–	1078.93 ± 0.58	1083.01 ± 0.59	1087.08 ± 0.6	1091.03 ± 0.61	1094.75 ± 0.63	1098.34 ± 0.64	1101.84 ± 0.66
298.15 K, x1 = 0.0252	795.08 ± 1.4	799.26 ± 1.4	803.35 ± 1.4	807.39 ± 1.4	811.05 ± 1.4	–	–	–	–
298.15 K, x1 = 0.0506	804.43 ± 1.4	808.65 ± 1.4	812.8 ± 1.4	816.89 ± 1.4	820.61 ± 1.4	–	–	–	–
298.15 K, x1 = 0.0757	813.64 ± 1.4	817.91 ± 1.4	822.06 ± 1.4	826.15 ± 1.4	829.93 ± 1.4	–	–	–	–
298.15 K, x1 = 0.1003	822.42 ± 1.4	826.69 ± 1.4	830.89 ± 1.4	834.98 ± 1.4	838.77 ± 1.4	–	–	–	–
298.15 K, x1 = 0.1508	840.14 ± 1.4	844.46 ± 1.4	848.67 ± 1.4	852.81 ± 1.4	856.66 ± 1.4	–	–	–	–
298.15 K, x1 = 0.2	856.81 ± 1.4	861.18 ± 1.4	865.45 ± 1.4	869.59 ± 1.4	873.46 ± 1.4	–	–	–	–
298.15 K, x1 = 0.2547	874.78 ± 1.4	879.19 ± 1.4	883.47 ± 1.4	887.66 ± 1.4	891.55 ± 1.4	–	–	–	–
298.15 K, x1 = 0.3002	889.24 ± 1.4	893.65 ± 1.4	897.98 ± 1.4	902.17 ± 1.4	906.13 ± 1.4	–	–	–	–
298.15 K, x1 = 0.3498	904.6 ± 1.4	909.01 ± 1.4	913.35 ± 1.4	917.59 ± 1.4	921.56 ± 1.4	–	–	–	–
298.15 K, x1 = 0.4	919.63 ± 1.4	924.09 ± 1.4	928.49 ± 1.4	932.73 ± 1.4	936.77 ± 1.5	–	–	–	–
298.15 K, x1 = 0.449	933.8 ± 1.4	938.26 ± 1.4	942.66 ± 1.5	946.91 ± 1.5	950.95 ± 1.5	–	–	–	–
298.15 K, x1 = 0.4996	947.93 ± 1.5	952.44 ± 1.5	956.85 ± 1.5	961.1 ± 1.5	965.16 ± 1.5	–	–	–	–
298.15 K, x1 = 0.5507	961.74 ± 1.5	966.24 ± 1.5	970.71 ± 1.5	974.95 ± 1.5	–	–	–	–	–
298.15 K, x1 = 0.6005	974.67 ± 1.5	979.17 ± 1.5	983.64 ± 1.5	987.89 ± 1.5	–	–	–	–	–
298.15 K, x1 = 0.6455	985.93 ± 1.5	990.48 ± 1.5	994.96 ± 1.5	999.21 ± 1.5	–	–	–	–	–
298.15 K, x1 = 0.6931	997.5 ± 1.5	1002.05 ± 1.5	1006.53 ± 1.5	1010.78 ± 1.5	–	–	–	–	–
298.15 K, x1 = 0.7502	1010.81 ± 1.5	1015.36 ± 1.5	1019.85 ± 1.5	1024.1 ± 1.5	–	–	–	–	–
298.15 K, x1 = 0.8009	1022.25 ± 1.5	1026.8 ± 1.5	1031.29 ± 1.5	1035.55 ± 1.5	–	–	–	–	–
298.15 K, x1 = 0.8505	1033.01 ± 1.5	1037.56 ± 1.5	1042.06 ± 1.5	1046.31 ± 1.5	–	–	–	–	–
298.15 K, x1 = 0.9008	1043.58 ± 1.5	1048.13 ± 1.5	1052.63 ± 1.5	1056.89 ± 1.6	–	–	–	–	–
298.15 K, x1 = 0.9255	1048.64 ± 1.5	1053.19 ± 1.5	1057.7 ± 1.6	1061.95 ± 1.6	–	–	–	–	–
298.15 K, x1 = 0.9477	1053.11 ± 1.5	1057.69 ± 1.6	1062.19 ± 1.6	1066.43 ± 1.6	–	–	–	–	–
298.15 K, x1 = 0.9735	1058.28 ± 1.6	1062.83 ± 1.6	1067.34 ± 1.6	1071.56 ± 1.6	–	–	–	–	–
298.15 K, x1 = 1	1063.45 ± 0.56	1068 ± 0.57	1072.51 ± 0.58	1076.72 ± 0.59	–	–	–	–	–
